According to paper PMC3961306, “Comparison of the Cancer Gene Targeting and Biochemical Selectivities of All Targeted Kinase Inhibitors Approved for Clinical Use” (PLoS ONE, 2014):

Experiments:
Assay in all cases: Kinase profiling in a biochemical assay panel (mobility shift assays and ELISA), %-inhibition at 1 μM; selectivity entropy
[1] = molecular target: T1, panel of more than 300 wild-type and mutant kinases (313 kinase panel) (Homo sapiens, UniProt O15530); settings: kinase PDK1; 1 μM
T1 sequence (O15530 1-556): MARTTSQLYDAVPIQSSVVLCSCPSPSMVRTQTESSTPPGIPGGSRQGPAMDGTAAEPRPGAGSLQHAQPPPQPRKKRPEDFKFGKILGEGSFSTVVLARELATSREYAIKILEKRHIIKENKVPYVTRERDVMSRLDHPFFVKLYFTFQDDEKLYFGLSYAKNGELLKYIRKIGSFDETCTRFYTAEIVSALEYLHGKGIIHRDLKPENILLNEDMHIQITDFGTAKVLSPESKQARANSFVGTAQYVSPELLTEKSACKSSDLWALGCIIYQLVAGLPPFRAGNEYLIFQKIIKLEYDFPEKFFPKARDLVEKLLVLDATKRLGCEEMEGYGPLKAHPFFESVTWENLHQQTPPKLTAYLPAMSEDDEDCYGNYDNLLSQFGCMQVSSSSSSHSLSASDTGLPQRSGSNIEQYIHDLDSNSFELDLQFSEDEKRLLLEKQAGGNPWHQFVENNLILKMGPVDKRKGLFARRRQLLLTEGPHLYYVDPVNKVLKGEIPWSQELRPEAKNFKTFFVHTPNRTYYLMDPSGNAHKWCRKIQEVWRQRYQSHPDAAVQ

[2] = molecular target: panel of more than 300 wild-type and mutant kinases (313 kinase panel) (Homo sapiens, UniProt P07949); settings: kinase RET; 1 μM
Sequence of panel of more than 300 wild-type and mutant kinases (313 kinase panel) (Homo sapiens, UniProt P07949) (P07949 29-1114, change not shown): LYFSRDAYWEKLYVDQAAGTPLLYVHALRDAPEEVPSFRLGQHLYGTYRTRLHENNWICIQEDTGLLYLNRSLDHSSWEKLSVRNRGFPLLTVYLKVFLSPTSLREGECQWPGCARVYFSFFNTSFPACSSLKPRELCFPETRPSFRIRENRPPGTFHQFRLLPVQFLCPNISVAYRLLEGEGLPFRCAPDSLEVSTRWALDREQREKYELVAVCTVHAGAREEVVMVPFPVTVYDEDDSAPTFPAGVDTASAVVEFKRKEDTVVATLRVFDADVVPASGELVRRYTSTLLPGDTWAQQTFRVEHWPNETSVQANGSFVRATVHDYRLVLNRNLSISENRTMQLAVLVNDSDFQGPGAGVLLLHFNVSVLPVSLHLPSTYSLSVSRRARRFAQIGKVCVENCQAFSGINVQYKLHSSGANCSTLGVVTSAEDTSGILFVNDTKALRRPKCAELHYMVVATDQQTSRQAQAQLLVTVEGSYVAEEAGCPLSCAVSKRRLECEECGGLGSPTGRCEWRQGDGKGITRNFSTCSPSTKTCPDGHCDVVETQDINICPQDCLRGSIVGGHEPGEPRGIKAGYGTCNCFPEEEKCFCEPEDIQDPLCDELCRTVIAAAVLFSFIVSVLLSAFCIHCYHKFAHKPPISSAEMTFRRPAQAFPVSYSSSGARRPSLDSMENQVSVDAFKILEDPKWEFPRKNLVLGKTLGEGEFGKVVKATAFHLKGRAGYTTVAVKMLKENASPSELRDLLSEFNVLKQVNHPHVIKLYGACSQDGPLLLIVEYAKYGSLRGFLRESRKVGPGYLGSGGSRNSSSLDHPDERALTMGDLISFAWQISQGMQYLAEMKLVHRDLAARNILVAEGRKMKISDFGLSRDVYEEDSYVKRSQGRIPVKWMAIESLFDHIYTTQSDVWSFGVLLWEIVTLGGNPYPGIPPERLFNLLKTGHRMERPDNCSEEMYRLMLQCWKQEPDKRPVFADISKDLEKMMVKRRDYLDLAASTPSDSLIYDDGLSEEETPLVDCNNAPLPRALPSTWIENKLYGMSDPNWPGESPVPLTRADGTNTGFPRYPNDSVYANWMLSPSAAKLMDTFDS

[3] = molecular target: T2, panel of more than 300 wild-type and mutant kinases (313 kinase panel) (Homo sapiens, UniProt P21709); settings: kinase EPHA1; compound at 1 μM
T2 sequence (P21709 26-976): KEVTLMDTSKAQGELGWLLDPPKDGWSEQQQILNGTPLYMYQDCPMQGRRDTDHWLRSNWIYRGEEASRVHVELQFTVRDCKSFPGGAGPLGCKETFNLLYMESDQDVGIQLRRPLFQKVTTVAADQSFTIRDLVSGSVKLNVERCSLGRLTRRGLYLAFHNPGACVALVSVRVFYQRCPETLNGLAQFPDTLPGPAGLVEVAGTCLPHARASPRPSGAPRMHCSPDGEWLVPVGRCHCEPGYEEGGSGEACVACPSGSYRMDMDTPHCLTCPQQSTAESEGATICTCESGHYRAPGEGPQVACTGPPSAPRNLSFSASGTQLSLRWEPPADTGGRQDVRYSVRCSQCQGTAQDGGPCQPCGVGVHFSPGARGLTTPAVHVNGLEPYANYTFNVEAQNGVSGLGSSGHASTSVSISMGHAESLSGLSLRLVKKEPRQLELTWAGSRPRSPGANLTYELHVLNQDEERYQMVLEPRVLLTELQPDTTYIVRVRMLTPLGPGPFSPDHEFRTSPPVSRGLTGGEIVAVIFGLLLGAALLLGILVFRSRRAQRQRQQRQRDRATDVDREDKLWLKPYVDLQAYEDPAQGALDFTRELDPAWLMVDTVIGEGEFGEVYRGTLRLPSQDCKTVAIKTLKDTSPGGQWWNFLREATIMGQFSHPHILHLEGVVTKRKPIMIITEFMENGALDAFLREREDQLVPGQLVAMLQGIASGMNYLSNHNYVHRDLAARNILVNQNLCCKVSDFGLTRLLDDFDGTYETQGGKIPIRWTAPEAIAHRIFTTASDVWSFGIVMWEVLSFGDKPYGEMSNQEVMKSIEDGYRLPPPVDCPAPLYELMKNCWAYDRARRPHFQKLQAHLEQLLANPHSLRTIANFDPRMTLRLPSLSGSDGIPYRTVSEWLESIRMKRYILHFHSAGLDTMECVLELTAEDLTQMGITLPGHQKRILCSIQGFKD

[4] = molecular target: panel of more than 300 wild-type and mutant kinases (313 kinase panel) (Homo sapiens, UniProt P41240); settings: kinase CSK; compound at 1 μM
Sequence of panel of more than 300 wild-type and mutant kinases (313 kinase panel) (Homo sapiens, UniProt P41240) (P41240 whole entry, change not shown): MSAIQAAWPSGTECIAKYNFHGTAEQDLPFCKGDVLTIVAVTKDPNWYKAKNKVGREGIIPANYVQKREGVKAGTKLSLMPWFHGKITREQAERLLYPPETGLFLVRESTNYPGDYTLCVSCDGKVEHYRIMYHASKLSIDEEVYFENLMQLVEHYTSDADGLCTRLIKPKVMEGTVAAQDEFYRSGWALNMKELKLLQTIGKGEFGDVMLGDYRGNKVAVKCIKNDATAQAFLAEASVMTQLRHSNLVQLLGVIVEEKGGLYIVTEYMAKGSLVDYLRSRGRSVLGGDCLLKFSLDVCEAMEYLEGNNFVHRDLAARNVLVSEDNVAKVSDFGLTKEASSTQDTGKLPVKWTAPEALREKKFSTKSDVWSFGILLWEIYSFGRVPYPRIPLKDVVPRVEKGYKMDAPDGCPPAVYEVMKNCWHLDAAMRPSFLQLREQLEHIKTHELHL

[5] = molecular target: T3, panel of more than 300 wild-type and mutant kinases (313 kinase panel) (Homo sapiens, UniProt P46734); settings: kinase MAP2K3; compound at 1 μM
T3 sequence (P46734 1-347): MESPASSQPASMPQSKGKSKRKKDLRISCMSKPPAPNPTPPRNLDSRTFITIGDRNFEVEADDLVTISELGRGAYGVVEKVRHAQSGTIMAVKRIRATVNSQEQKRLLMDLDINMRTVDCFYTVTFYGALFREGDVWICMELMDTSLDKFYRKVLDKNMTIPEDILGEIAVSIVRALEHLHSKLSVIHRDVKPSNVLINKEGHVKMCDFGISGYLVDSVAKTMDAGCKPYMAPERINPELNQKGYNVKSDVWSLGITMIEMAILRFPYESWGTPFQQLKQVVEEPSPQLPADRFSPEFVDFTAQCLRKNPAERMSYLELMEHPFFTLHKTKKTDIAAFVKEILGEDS

[6] = molecular target: panel of more than 300 wild-type and mutant kinases (313 kinase panel) (Homo sapiens, UniProt Q13555); settings: kinase CaMK2γ; 1 μM compound
[7] = molecular target: panel of more than 300 wild-type and mutant kinases (313 kinase panel) (Homo sapiens, UniProt Q8IY84); settings: kinase MGC42105; 1 μM
[8] = molecular target: panel of more than 300 wild-type and mutant kinases (313 kinase panel) (Homo sapiens, UniProt Q9UM73); settings: kinase ALK; 1 μM compound

CO[C@H]1C[C@@H]2CC[C@@H](C)[C@@](O)(O2)C(=O)C(=O)N2CCCC[C@H]2C(=O)O[C@H]([C@H](C)C[C@@H]2CC[C@@H](OC(=O)C(C)(CO)CO)[C@H](OC)C2)CC(=O)[C@H](C)/C=C(\C)[C@@H](O)[C@@H](OC)C(=O)[C@H](C)C[C@H](C)/C=C/C=C/C=C/1C [temsirolimus]
%-inhibition of PDK1 [1]: -8%
%-inhibition of RET [2]: -3%
%-inhibition of EPHA1 [3]: -15%
%-inhibition of CSK [4]: -1.56%
%-inhibition of MAP2K3 [5]: 10%
%-inhibition, CaMK2γ [6]: -14%
%-inhibition of MGC42105 [7]: -11%
%-inhibition, ALK [8]: -2%

CC(=O)Nc1cccc(-n2c(=O)n(C3CC3)c(=O)c3c(Nc4ccc(I)cc4F)n(C)c(=O)c(C)c32)c1 [trametinib]
%-inhibition of PDK1 [1]: -5.52%
%-inhibition of RET [2]: -8%
%-inhibition of EPHA1 [3]: -1.61%
%-inhibition of CSK [4]: -2.83%
%-inhibition of MAP2K3 [5]: 3%
%-inhibition, CaMK2γ [6]: 7%
%-inhibition of MGC42105 [7]: 1.39%
%-inhibition, ALK [8]: -2.82%

CCCS(=O)(=O)Nc1ccc(F)c(C(=O)c2c[nH]c3ncc(-c4ccc(Cl)cc4)cc23)c1F [vemurafenib]
%-inhibition of PDK1 [1]: -4%
%-inhibition of RET [2]: 32%
%-inhibition of EPHA1 [3]: -9%
%-inhibition of CSK [4]: 76%
%-inhibition of MAP2K3 [5]: 34%
%-inhibition, CaMK2γ [6]: -10%
%-inhibition of MGC42105 [7]: -8%
%-inhibition, ALK [8]: 1.14%
